Measurements published in PubChem BioAssay AID1259407 (Chemical Carcinogenesis Research Information System (CCRIS), 2018).
Activity calls are given as the source filed them. The rule behind the calls is not given here.

System: CCRIS mutagenicity, Ames/micronucleus/aberration tests
Test: CCRIS mutagenicity studies
[1] = Test System: AMES SALMONELLA TYPHIMURIUM, Strain/Indicator: TA98, Metabolic Activation: NONE, Method: STANDARD PLATE
[2] = Test System: AMES SALMONELLA TYPHIMURIUM, Strain/Indicator: TA98, Metabolic Activation: NONE, Method: PREINCUBATION
[3] = Test System: AMES SALMONELLA TYPHIMURIUM, Strain/Indicator: TA100, Metabolic Activation: NONE, Method: STANDARD PLATE

For O=C(/C=C/c1ccc([N+](=O)[O-])o1)N/N=C/c1ccc([N+](=O)[O-])o1, the mutagenic call (Test System: AMES SALMONELLA TYPHIMURIUM, Strain/Indicator: TA98(1,8-DNP6), Metabolic Activation: NONE, Method: STANDARD PLATE) was “active; positive”, the mutagenic call (Test System: AMES SALMONELLA TYPHIMURIUM, Strain/Indicator: TA98(1,8-DNP6), Metabolic Activation: RAT, LIVER, S-9, 3-METHYLCHOLANTHRENE, Method: STANDARD PLATE) was “active; positive” and the mutagenic call (Test System: AMES SALMONELLA TYPHIMURIUM, Strain/Indicator: TA98(NR), Metabolic Activation: NONE, Method: STANDARD PLATE) was “active; positive”. For the same compound, the mutagenic call (Test System: AMES SALMONELLA TYPHIMURIUM, Strain/Indicator: TA98(NR), Metabolic Activation: RAT, LIVER, S-9, 3-METHYLCHOLANTHRENE, Method: STANDARD PLATE) was “active; positive”, the mutagenic call [1] was “active; positive” and the mutagenic call (Test System: AMES SALMONELLA TYPHIMURIUM, Strain/Indicator: TA98, Metabolic Activation: RAT, LIVER, S-9, 3-METHYLCHOLANTHRENE, Method: STANDARD PLATE) was “active; positive”.
Cn1c([N+](=O)[O-])nc2c3cccnc3ccc21 was tested, and the mutagenic call (Test System: AMES SALMONELLA TYPHIMURIUM, Strain/Indicator: TA98(1,8-DNP6), Metabolic Activation: NONE, Method: PREINCUBATION) was “inactive; negative”, the mutagenic call [2] was “active; positive” and the mutagenic call (Test System: AMES SALMONELLA TYPHIMURIUM, Strain/Indicator: YG1024, Metabolic Activation: NONE, Method: PREINCUBATION) was “active; positive”. For the same compound, the mutagenic call (Test System: E. COLI, Strain/Indicator: CC109, Metabolic Activation: NONE, Method: STANDARD PLATE) was “active; positive”, the mutagenic call (Test System: E. COLI, Strain/Indicator: CC109PYG219, Metabolic Activation: NONE, Method: STANDARD PLATE) was “active; positive” and the mutagenic call (Test System: E. COLI, Strain/Indicator: DJ3107, Metabolic Activation: NONE, Method: STANDARD PLATE) was “inactive; negative”. The mutagenic call (Test System: E. COLI, Strain/Indicator: DJ3108, Metabolic Activation: NONE, Method: STANDARD PLATE) was “active; positive”, the mutagenic call (Test System: E. COLI, Strain/Indicator: DJ3109, Metabolic Activation: NONE, Method: STANDARD PLATE) was “active; positive” and the mutagenic call (Test System: E. COLI, Strain/Indicator: DJ3110, Metabolic Activation: NONE, Method: STANDARD PLATE) was “inactive; negative”. The mutagenic call (Test System: E. COLI, Strain/Indicator: DJ3111, Metabolic Activation: NONE, Method: STANDARD PLATE) was “inactive; negative”, the mutagenic call (Test System: E. COLI, Strain/Indicator: DJ3207, Metabolic Activation: NONE, Method: STANDARD PLATE) was “inactive; negative” and the mutagenic call (Test System: E. COLI, Strain/Indicator: DJ3208, Metabolic Activation: NONE, Method: STANDARD PLATE) was “active; positive”. The mutagenic call (Test System: E. COLI, Strain/Indicator: DJ3209, Metabolic Activation: NONE, Method: STANDARD PLATE) was “active; positive” and the mutagenic call (Test System: E. COLI, Strain/Indicator: DJ3211, Metabolic Activation: NONE, Method: STANDARD PLATE) was “inactive; negative”.
With CCN(CC)c1ccc2nc3ccc(=[N+](CC)CC)cc-3oc2c1 the mutagenic call (Test System: AMES SALMONELLA TYPHIMURIUM, Strain/Indicator: TA98, Metabolic Activation: HAMSTER, LIVER, S-9, AROCLOR 1254 (10%), Method: STANDARD PLATE) was “inactive; negative”, the mutagenic call [1] was “active; positive” and the mutagenic call (Test System: AMES SALMONELLA TYPHIMURIUM, Strain/Indicator: TA98, Metabolic Activation: RAT, LIVER, S-9, AROCLOR 1254 (10%), Method: STANDARD PLATE) was “inactive; negative”. For the same compound, the mutagenic call (Test System: AMES SALMONELLA TYPHIMURIUM, Strain/Indicator: TA100, Metabolic Activation: HAMSTER, LIVER, S-9, AROCLOR 1254 (10%), Method: STANDARD PLATE) was “inactive; negative”, the mutagenic call [3] was “inactive; negative” and the mutagenic call (Test System: AMES SALMONELLA TYPHIMURIUM, Strain/Indicator: TA100, Metabolic Activation: RAT, LIVER, S-9, AROCLOR 1254 (10%), Method: STANDARD PLATE) was “inactive; negative”. For the same compound, the mutagenic call (Test System: Ames Salmonella typhimurium, Strain/Indicator: TA98, Metabolic Activation: None, Method: Preincubation) was “inactive; negative”, the mutagenic call (Test System: Ames Salmonella typhimurium, Strain/Indicator: TA98, Metabolic Activation: Rat, Liver, S-9, Aroclor 1254, Method: Preincubation) was “inactive; negative” and the mutagenic call (Test System: Ames Salmonella typhimurium, Strain/Indicator: TA100, Metabolic Activation: None, Method: Preincubation) was “inactive; negative”. For the same compound, the mutagenic call (Test System: Ames Salmonella typhimurium, Strain/Indicator: TA100, Metabolic Activation: Rat, Liver, S-9, Aroclor 1254, Method: Preincubation) was “inactive; negative”, the mutagenic call (Test System: Ames Salmonella typhimurium, Strain/Indicator: TA102, Metabolic Activation: None, Method: Preincubation) was “inactive; negative” and the mutagenic call (Test System: Ames Salmonella typhimurium, Strain/Indicator: TA102, Metabolic Activation: Rat, Liver, S-9, Aroclor 1254, Method: Preincubation) was “inactive; negative”. For the same compound, the mutagenic call (Test System: Ames Salmonella typhimurium, Strain/Indicator: TA1535, Metabolic Activation: None, Method: Preincubation) was “inactive; negative”, the mutagenic call (Test System: Ames Salmonella typhimurium, Strain/Indicator: TA1535, Metabolic Activation: Rat, Liver, S-9, Aroclor 1254, Method: Preincubation) was “inactive; negative” and the mutagenic call (Test System: MOUSE LYMPHOMA, Strain/Indicator: L5178Y (TK+/TK-), Metabolic Activation: NONE, Method: SUSPENSION/PLATE) was “active; positive. reevaluation of results: positive”. The mutagenic call (Test System: MOUSE LYMPHOMA, Strain/Indicator: L5178Y (TK+/TK-), Metabolic Activation: RAT, LIVER, S-9, AROCLOR 1254, Method: SUSPENSION/PLATE) was “active; positive. reevaluation of results: positive”.
For C[C@]1(Cn2ccnn2)[C@H](C(=O)O)N2C(=O)C[C@H]2S1(=O)=O, the mutagenic call (Test System: AMES SALMONELLA TYPHIMURIUM, Strain/Indicator: TA98, Metabolic Activation: HAMSTER, LIVER, S-9, AROCLOR 1254, Method: STANDARD PLATE) was “inactive; negative”, the mutagenic call [2] was “inactive; negative” and the mutagenic call [1] was “inactive; negative”. For the same compound, the mutagenic call (Test System: AMES SALMONELLA TYPHIMURIUM, Strain/Indicator: TA98, Metabolic Activation: S-9, Method: PREINCUBATION) was “inactive; negative”, the mutagenic call (Test System: AMES SALMONELLA TYPHIMURIUM, Strain/Indicator: TA100, Metabolic Activation: HAMSTER, LIVER, S-9, AROCLOR 1254, Method: STANDARD PLATE) was “inactive; negative” and the mutagenic call (Test System: AMES SALMONELLA TYPHIMURIUM, Strain/Indicator: TA100, Metabolic Activation: NONE, Method: PREINCUBATION) was “inactive; negative”. For the same compound, the mutagenic call [3] was “inactive; negative”, the mutagenic call (Test System: AMES SALMONELLA TYPHIMURIUM, Strain/Indicator: TA100, Metabolic Activation: S-9, Method: PREINCUBATION) was “inactive; negative” and the mutagenic call (Test System: AMES SALMONELLA TYPHIMURIUM, Strain/Indicator: TA102, Metabolic Activation: HAMSTER, LIVER, S-9, AROCLOR 1254, Method: STANDARD PLATE) was “inactive; negative”. The mutagenic call (Test System: AMES SALMONELLA TYPHIMURIUM, Strain/Indicator: TA102, Metabolic Activation: NONE, Method: STANDARD PLATE) was “inactive; negative”, the mutagenic call (Test System: AMES SALMONELLA TYPHIMURIUM, Strain/Indicator: TA1535, Metabolic Activation: NONE, Method: PREINCUBATION) was “inactive; negative” and the mutagenic call (Test System: AMES SALMONELLA TYPHIMURIUM, Strain/Indicator: TA1535, Metabolic Activation: S-9, Method: PREINCUBATION) was “inactive; negative”. For the same compound, the mutagenic call (Test System: AMES SALMONELLA TYPHIMURIUM, Strain/Indicator: TA1537, Metabolic Activation: NONE, Method: PREINCUBATION) was “inactive; negative”, the mutagenic call (Test System: AMES SALMONELLA TYPHIMURIUM, Strain/Indicator: TA1537, Metabolic Activation: S-9, Method: PREINCUBATION) was “inactive; negative” and the mutagenic call (Test System: E. COLI, Strain/Indicator: WP2 UVRA, Metabolic Activation: NONE, Method: PREINCUBATION) was “inactive; negative”. For the same compound, the mutagenic call (Test System: E. COLI, Strain/Indicator: WP2 UVRA, Metabolic Activation: S-9, Method: PREINCUBATION) was “inactive; negative”.
